{
  "source": "ChEMBL document CHEMBL5036330",
  "about": "“Discovery of 8,9-seco-ent-Kaurane Diterpenoids as Potential Leads for the Treatment of Triple-Negative Breast Cancer” (J Med Chem, 2021)",
  "test_system": "MDA-MB-468",
  "experiment": "Cytotoxicity against human MDA-MB-468 cells assessed as reduction in cell viability incubated for 96 hrs by MTT method",
  "format": "functional, cell-based",
  "details": "MDA-MB-468, 96 h",
  "data": [
    {"compound": "C=C1C(=O)C2=C[C@H]1CCC(=O)[C@]1(C)[C@H](O)CCC(C)(C)[C@H]1C[C@H]2O", "values": [
      {"measurement": "IC50", "result": 0.0716, "unit": "µM"}
    ]}
  ]
}
